From ChEMBL document CHEMBL1143337, “Novel boronated chlorin e6-based photosensitizers: synthesis, binding to albumin and antitumour efficacy” (Bioorg Med Chem, 2009) come the findings set out here.

Data set [1] is described as follows: Antitumor activity against rat M1 cells implanted in rat assessed as increase in tumor volume coefficient followed by light illumination at 25 mg/kg, ip after 21 days relative to control. Format: functional. To be noted: route intraperitoneal.
The nature of data set [2]: Antitumor activity against rat M1 cells implanted in rat assessed as increase in tumor volume coefficient followed by light illumination at 25 mg/kg, ip after 14 days relative to control. Format: functional. Conditions: route intraperitoneal.
The nature of data set [3]: Induction of necrosis in rat fibroblasts at 1 uM after 20 min post illumination to red light. Format: cell-based. To be noted: fibroblast.
A further data set concerns the target Albumin (Homo sapiens, UniProt P02768). The experiment in a line: Binding affinity to human serum albumin. It counts as ADME. Conditions: isolated protein.

The structures appear in SMILES notation.

Sequence of Albumin (P02768 whole entry): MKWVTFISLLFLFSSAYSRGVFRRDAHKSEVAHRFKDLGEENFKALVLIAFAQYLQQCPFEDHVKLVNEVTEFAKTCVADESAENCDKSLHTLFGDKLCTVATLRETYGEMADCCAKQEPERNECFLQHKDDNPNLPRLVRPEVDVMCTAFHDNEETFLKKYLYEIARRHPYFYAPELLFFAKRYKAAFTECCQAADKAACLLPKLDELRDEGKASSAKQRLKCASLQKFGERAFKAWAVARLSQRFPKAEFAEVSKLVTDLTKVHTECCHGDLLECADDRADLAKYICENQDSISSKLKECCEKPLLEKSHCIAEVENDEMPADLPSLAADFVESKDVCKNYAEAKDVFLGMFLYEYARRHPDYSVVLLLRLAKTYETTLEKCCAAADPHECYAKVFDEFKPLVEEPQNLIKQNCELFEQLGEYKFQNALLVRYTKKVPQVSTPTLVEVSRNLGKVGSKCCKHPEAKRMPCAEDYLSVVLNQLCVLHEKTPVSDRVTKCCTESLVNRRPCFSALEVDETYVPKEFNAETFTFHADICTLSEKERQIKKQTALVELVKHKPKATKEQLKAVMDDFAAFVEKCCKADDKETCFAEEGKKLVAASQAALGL

In the case of `C=Cc1c(C)c2cc3nc(c(CC(=O)OC)c4[nH]c(cc5nc(cc1[nH]2)C(C)=C5CC)c(C)c4C(=O)NCCN)[C@@H](CCC(=O)OC)C3C` (some centres undefined), the “fold change (FC)” value is listed as 14.5 in data set [1] and 6.6 in data set [2]. In addition, in data set [3], the Activity result is reported as “Toxic”. The same molecule yielded a Kb on Albumin of 2 ×10⁵ /M.
